Test results from the supplement of paper PMC5908809.

Assays:
[1] = system: normal NK cells expanded with K562-aAPC; test: percent inhibition of viability; higher = more inhibition; conditions: 72 h, IL-2 2.5 ng/mL
Protocol: (§1)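 Drug sensitivity and resistance testing on K562-aAPC-expanded normal NK cells: 5 concentrations (10-fold steps over a 10,000-fold range), 72 h at 37 °C, viability by CellTiter-Glo normalised to DMSO and benzethonium chloride controls; DSS from the fitted curve.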

[2] = system: IMC-1 (IL-2 20 ng/mL); test: as above; conditions: 72 h
[3] = system: NK-YS (IL-2 2.5 ng/mL); test: as above; conditions: 72 h
[4] = system: normal primary NK cells, pool 1 (3 donors), resting (IL-2 0 ng/mL); test: as above; conditions: 72 h
[5] = system: normal primary NK cells, pool 1 (3 donors) (IL-2 2.5 ng/mL); test: as above; conditions: 72 h
[6] = system: KAI3 (IL-2 2.5 ng/mL); test: as above; conditions: 72 h
[7] = system: SNK-6 (IL-2 2.5 ng/mL); test: as above; conditions: 72 h
[8] = system: NK-92 (IL-2 2.5 ng/mL); test: as above; conditions: 72 h
[9] = system: normal primary NK cells, pool 2 (3 donors) (IL-2 2.5 ng/mL); test: as above; conditions: 72 h
[10] = system: DERL-7 (IL-2 2.5 ng/mL); test: as above; conditions: 72 h
[11] = system: YT (IL-2 2.5 ng/mL); test: as above; conditions: 72 h
[12] = system: KHYG-1 (IL-2 2.5 ng/mL); test: as above; conditions: 72 h
[13] = system: normal primary NK cells, pool 3 (3 donors) (IL-2 2.5 ng/mL); test: as above; conditions: 72 h
[14] = system: NKL (IL-2 2.5 ng/mL); test: as above; conditions: 72 h
[15] = system: IMC-1 (IL-2 20 ng/mL); test: drug sensitivity score (DSS) (DSS units); higher = more sensitive; extreme values may be limits of the assay; conditions: 72 h
[16] = system: NK-YS (IL-2 2.5 ng/mL); test: as above; conditions: 72 h
[17] = system: normal primary NK cells, pool 1 (3 donors), resting (IL-2 0 ng/mL); test: as above; conditions: 72 h
[18] = system: normal primary NK cells, pool 1 (3 donors) (IL-2 2.5 ng/mL); test: as above; conditions: 72 h
[19] = system: KAI3 (IL-2 2.5 ng/mL); test: as above; conditions: 72 h
[20] = system: SNK-6 (IL-2 2.5 ng/mL); test: as above; conditions: 72 h
[21] = system: NK-92 (IL-2 2.5 ng/mL); test: as above; conditions: 72 h
[22] = system: normal primary NK cells, pool 2 (3 donors) (IL-2 2.5 ng/mL); test: as above; conditions: 72 h
[23] = system: DERL-7 (IL-2 2.5 ng/mL); test: as above; conditions: 72 h
[24] = system: YT (IL-2 2.5 ng/mL); test: as above; conditions: 72 h
[25] = system: KHYG-1 (IL-2 2.5 ng/mL); test: as above; conditions: 72 h
[26] = system: normal primary NK cells, pool 3 (3 donors) (IL-2 2.5 ng/mL); test: as above; conditions: 72 h
[27] = system: NKL (IL-2 2.5 ng/mL); test: as above; conditions: 72 h
[28] = system: normal NK cells expanded with K562-aAPC; test: as above; conditions: 72 h; IL-2 2.5 ng/mL
Protocol: as §1

O=C(O)CNC(=O)c1c(O)c2ccccc2n(Cc2ccccc2)c1=O [IOX-2] (max concentration tested 50000 nM)
percent inhibition of viability [%]
Conditions | 5 nM | 50 nM | 500 nM | 5000 nM | 50000 nM
[1] | -0.06 | 6.04 | 5.91 | 6.68 | 23.3
[2] | 1.88 | 0.96 | 5.1 | 6.24 | 28.9
[3] | 0.04 | -3.4 | 4.58 | -1.43 | 25.9
[4] | 1.89 | -6.6 | 3 | -20.1 | 3.21
[5] | 3.1 | -5.28 | -1.2 | -0.54 | 6.1
[6] | -3.52 | 1.05 | 2.47 | -3.92 | 11.8
[7] | 5.46 | -1.31 | -7.77 | 8.49 | 43.1
[8] | -8.34 | -11.4 | 3.46 | -6.86 | 24.2
[9] | -14.4 | 0.63 | -2.21 | -3.15 | 4.77
[10] | -0.5 | 5.58 | 5.28 | -4.63 | 25.8
[11] | -1.09 | -0.73 | 1.54 | -7.45 | 15.8
[12] | 1.01 | 1.23 | 3.87 | 2.07 | 14.3
[13] | -6.36 | 0.19 | 2.86 | -4.87 | 13.1
[14] | -6.3 | -1.48 | -3.38 | 1.11 | 28.3

Conditions | drug sensitivity score
[15] | 2.14
[16] | 0.91
[17] | 0
[18] | 0
[19] | 0.01
[20] | 3.58
[21] | 0.62
[22] | 0
[23] | 0.77
[24] | 0.14
[25] | 0.37
[26] | 0.04
[27] | 1.32
[28] | 1.12

CNC(=O)c1ccc(C)c(-n2c(C)cc(OCc3ccc(F)cc3F)c(Br)c2=O)c1 (max concentration tested 1000 nM)
percent inhibition of viability [%]
Conditions | 0.1 nM | 1 nM | 10 nM | 100 nM | 1000 nM
[1] | -9.29 | -8.5 | -9.81 | -3.39 | 11.1
[2] | -9.65 | -8.9 | -7.96 | -3.82 | 12.4
[3] | -6.34 | -5.21 | 0.76 | 7.92 | 26.5
[4] | 4.88 | 3.54 | 13.7 | 4.12 | 7.14
[5] | 0.91 | 0.08 | 13.3 | 13.8 | 17.8
[6] | -0.38 | 1.93 | 8.49 | 20.8 | 36
[7] | -18.8 | -0.3 | -20.7 | -13.9 | -14.7
[8] | -1.67 | -6.84 | -3.84 | -1.12 | 28.7
[9] | -5.3 | -4.39 | 0.85 | -1.04 | -5.85
[10] | -0.31 | -4.89 | -4.27 | 2.58 | 1.48
[11] | -3.68 | -3.72 | -2.87 | 1.27 | 21.9
[12] | -4.44 | -7.81 | -8.38 | -3.53 | 12.3
[13] | -6.51 | -4.02 | 4.48 | 7.49 | 0.09
[14] | -10.5 | -7 | 9.32 | 26.1 | 43.8

Conditions | drug sensitivity score
[15] | 0.02
[16] | 2.15
[17] | 0
[18] | 3.24
[19] | 4.23
[20] | 0
[21] | 1.12
[22] | 0
[23] | 0
[24] | 0.89
[25] | 0.02
[26] | 0
[27] | 5.52
[28] | 0

CO[C@H]1C[C@@H]2CC[C@@H](C)[C@@](O)(O2)C(=O)C(=O)N2CCCC[C@H]2C(=O)O[C@H]([C@H](C)C[C@@H]2CC[C@@H](O)[C@H](OC)C2)CC(=O)[C@H](C)/C=C(\C)[C@@H](O)[C@@H](OC)C(=O)[C@H](C)C[C@H](C)/C=C/C=C/C=C/1C [Sirolimus] (max concentration tested 100 nM)
percent inhibition of viability [%]
Conditions | 0.01 nM | 0.1 nM | 1 nM | 10 nM | 100 nM
[1] | -3.63 | -1.36 | 3.81 | 13.8 | 18.7
[2] | -3.21 | 1.18 | -3.68 | -15.7 | -35.8
[3] | -0.35 | 1.64 | 29.4 | 54.6 | 58.5
[4] | 1.62 | -12 | 3.7 | 1.9 | 13.7
[5] | 0.77 | -8.98 | 3.92 | 5.36 | 11.1
[6] | -2.33 | -1.67 | 15.9 | 44.7 | 54.9
[7] | 7.11 | 11.7 | 26.8 | 58 | 53.6
[8] | -4.22 | 6.09 | 10.4 | 22 | 41.1
[9] | -8.36 | 2 | 15.3 | 16.1 | 24.9
[10] | 1.91 | 1.51 | 7.44 | 38.3 | 55.7
[11] | -0.6 | 3.68 | 8.62 | 48.9 | 50
[12] | -2.67 | 2.99 | 5.43 | 47.1 | 73.8
[13] | -9.48 | -6.09 | 3.92 | 6.87 | 10.3
[14] | 10.2 | 24.2 | 45.2 | 58.8 | 68.7

Conditions | drug sensitivity score
[15] | 0
[16] | 13.8
[17] | 0.29
[18] | 0.01
[19] | 10
[20] | 13.6
[21] | 4.93
[22] | 3.82
[23] | 8.02
[24] | 10.3
[25] | 9.94
[26] | 0
[27] | 19.3
[28] | 1.68

C1=N/C2=N/c3ccc(OCCN4CCCC4)c(c3)COC/C=C/COCc3cccc(c3)C(=C1)N2 [Pacritinib] (max concentration tested 10000 nM)
percent inhibition of viability [%]
Conditions | 1 nM | 10 nM | 100 nM | 1000 nM | 10000 nM
[1] | -2.28 | -6.13 | 9.28 | 58.8 | 99.4
[2] | -5.72 | -0.5 | -10.2 | -17.7 | 98.5
[3] | -5.53 | 0.76 | 3.37 | 50.8 | 102
[4] | -8.26 | -5.07 | -1.15 | 60.6 | 99.4
[5] | 2.77 | -5.07 | 8.34 | 82.1 | 99.9
[6] | -4.38 | 0.97 | 8.91 | 68.1 | 102
[7] | -2.06 | 1.27 | -10.4 | 30.5 | 99.4
[8] | -16.4 | -11.8 | 1.4 | 37.9 | 100
[9] | -8.58 | 0.56 | 8.47 | 82.3 | 95.9
[10] | -0.5 | 3.08 | 13.1 | 64.9 | 99.9
[11] | -5.32 | -0.86 | -1.84 | 55.9 | 102
[12] | -2.5 | -2.14 | -0.78 | 61.7 | 102
[13] | -10.8 | -10.8 | 0.28 | 75.3 | 98.7
[14] | -10.8 | -10.3 | -2.07 | 65.3 | 102

Conditions | drug sensitivity score
[15] | 4.5
[16] | 11.7
[17] | 12.6
[18] | 16.2
[19] | 14.2
[20] | 9.9
[21] | 10.7
[22] | 16.2
[23] | 14.1
[24] | 12.2
[25] | 12.8
[26] | 14.1
[27] | 13.1
[28] | 12.8

Nc1cccc2c1C(=O)N(C1CCC(=O)NC1=O)C2=O (stereo not given) [Pomalidomide] (max concentration tested 10000 nM)
percent inhibition of viability [%]
Conditions | 1 nM | 10 nM | 100 nM | 1000 nM | 10000 nM
[1] | -10.8 | -9.91 | -9.37 | -11.8 | -8.13
[2] | -4 | -1.04 | -2.22 | -4.13 | -2.92
[3] | -3.69 | -2.34 | -5.2 | -2.26 | -0.5
[4] | -1.02 | -19.1 | -32.7 | -20.7 | -23.7
[5] | -3.59 | -0.54 | -10.1 | 9.65 | 3.39
[6] | -0.58 | -8.97 | -7.97 | -13.6 | -12.9
[7] | -0.98 | 3.29 | 13.5 | -10.9 | 31.7
[8] | -1.19 | -10.2 | -3.35 | -12.4 | -16.6
[9] | -13.3 | 1.17 | -2.18 | -2.49 | -1.88
[10] | -0.13 | -4.4 | 15.2 | -7.7 | -4.17
[11] | -5.53 | -2.96 | -0.67 | -5.5 | -0.71
[12] | -4.54 | -1.13 | -5.7 | -4.26 | -0.94
[13] | -16 | 7.94 | -8.83 | -7.7 | -5.51
[14] | -6.14 | -8.75 | 7.72 | 18.5 | 21.2

Conditions | drug sensitivity score
[15] | 0
[16] | 0
[17] | 0
[18] | 0
[19] | 0
[20] | 0.99
[21] | 0
[22] | 0
[23] | 0
[24] | 0
[25] | 0
[26] | 0
[27] | 3.93
[28] | 0
